Test results: patent publication US7163935B2, “Scorpionate-like pendant macrocyclic ligands, complexes and compositions thereof, and methods of using same” (The United States of America as represented by the …, priority 2002, dated 2007)

Experiment: Complexation (formation) kinetics with Y(III), competing reaction with Arsenazo III, absorbance at 652 nm
Type: physicochemical
Conditions: pH 4, room temperature
Protocol: Formation kinetics of Y(III) complexes of 1, 2, and DOTA (Macrocyclics) was measured by monitoring the absorption at 652 nm. To 2 mL of 1.6 mM YCl3 (from atomic absorption standard solution, Aldrich) and 5 mM Arsenazo III (Sigma) in 0.15 M NH4OAc (pH 4.0, metal-free), 20 μL of 10 mM ligand solution were added into a cell. After mixing (<5 sec), absorption of the solution at 652 nm (absorption wavelength of Y(III)-Arsenazo III) (Kline et al., Bioconjugate Chem., 1991, 2,26–31) was immediately followed over time at room temperature using an HP 8452A Diode Array Spectrophotometer, which was pre-blanked with a 5 mM Arsernazo III solution. Without any ligand added, the absorption was 0.089 for 1.6 mM YCl3 in 5 mM Arsernazo III solution at 652 nm.
The complexation kinetics of novel chelates 1, 2, and DOTA with Y(III) was qualitatively investigated using a competing reaction with Arsenazo III according to a modification of a previously reported procedure (Kodama et al., Inorg. Chem., 1991, 30, 1270–1273). The absorbance (A652) for the Y(III)-Arsenazo III complex was measured in the absence and in the presence of the chelates (1, 2, and DOTA) over 1 h. The results are shown in FIG. 3, which is a line graph of absorbance at 652 nm vs. reaction time (s), in which curve “a” represents Y-2, curve “b” represents Y-DOTA, and curve “c” represents Y-1. […] Complexation of Y(III) by 2 is assumed to occur to some degree, but the formed complex might undergo decomplexation due to an absence of complex stability, ultimately leading to an unfavorable equilibrium situation.

[1] = Arsenazo III competition, A652 over 1 h

SMILES | complex formation with Y(III) (rate) [1] | rate of complex formation with Y(III) compared to DOTA (time scan measurements) | degree of complexation of Y(III) [1]
O=C(O)CN1CCN(CC(=O)O)CCN(CC(=O)O)CCN(CC(=O)O)CC1 [DOTA, 1,4,7,10-tetraazacyclododecane-N,N′,N″,N′″-tetraacetic acid, reference compound] | sluggish |  | 
Cl.Cl.Cl.Cl.O=C(O)CN1CCN(CCN(CC(=O)O)CC(=O)O)CCN(CC(=O)O)CC1 [ligand 1, {[2-(4,7-bis-carboxymethyl)-[1,4,7]triazacyclononan-1-yl-ethyl]-carbonylmethyl-amino]-acetic acid tetrahydrochloride] | quite rapid and is essentially complete very shortly after the starting point of measurement | much greater rate than DOTA | 
Cl.Cl.Cl.Cl.O=C(O)CN1CCN(CCCN(CC(=O)O)CC(=O)O)CCN(CC(=O)O)CC1 [ligand 2, {[3-(4,7-bis-carboxymethyl)-[1,4,7]triazacyclononan-1-yl-propyl]-carbonyl-methylamino]-acetic acid tetrahydrochloride] | very slow |  | slight and remained unchanged over the period of measurement
